Laboratory results published in US5618726A, “Biodegradable azo dyes” (priority 1994, dated 1997).

Assays:
S. chromofuscus A11 = settings: for Decolorization of growth medium by S. chromofuscus A11: both 50 and 100 ppm; for Degradation (%) after Streptomyces cultivation, strain A11: streptomyces chromofuscus a11 culture, 336 h
Experimental: (§1) Microbiol., 1984, 130:2905-2913.
(§2) Replicate sterile controls also were run in each experiment.
The Streptomyces were grown on the same media and under the same conditions as previously described. […] Thus, the spectrophotometric assays for substrates 1-12 were carried out at their specific isobastic points. Degradation was calculated as percent of substrates removed from culture broth, considering the evaporation factor (around 10%).

[1] = test system: S. chromofuscus A11 extracellular peroxidase; assay: Oxidation of azo dyes by S. chromofuscus A11 crude enzyme preparation; type: biochemical, Streptomyces chromofuscus A11; settings: pH 8, 37° C., H2O2
Experimental: Environ. Microbiol., 1988, 54:3057-3063. […] Microbiol. Biotechnol., 34:661-667. Incubation took place at 37° C. with shaking at 250 rpm. The culture supernatant was collected after 48 h incubation, and vacuum-filtered through Whatman no. 1 filter paper. The filtrate was concentrated approximately 40- to 50-fold by ultrafiltration through an Amicon ultrafiltration stirred cell (series no. 8000, Amicon Corp.) with a disc PM-10 filter (diameter, 76 mm). Protein in the concentrated filtrate was then precipitated from solution with 80% ammonium sulfate. The precipitate was collected by centrifugation (15 min, 10,000 rpm). The pellet was resuspended in 10 ml of 20 mM HEPES buffer (pH 8) and dialyzed overnight against the same buffer at 4° C. These preparations were then stored in 1-ml aliquots at -20° C. until used. Before using, the preparation was filtered through a NAP-25 Sephadex G-25 disposable column (Pharmacia) in order to separate a yellowish protein fraction from a pink low-molecular-weight fraction. The yellowish fraction was used as the source of enzyme. […] The reaction was started with the addition of 100 μl of 50 mM H2 O2 and was followed for 1 min at 37° C. Controls were run with no addition of H2 O2 or with the addition of the hemeperoxidase inhibitor KCN (final concentration 25 μM).

Mn(II)-peroxidase = assay: Oxidation of dyes by P. chrysosporium Mn(II)-peroxidase; type: biochemical, Phanerochaete chrysosporium; settings: crude enzyme, conditions specific for Mn(II)-peroxidase
Experimental: (§3) The peroxidase assay was carried out using a composition having a final volume of 1.0 ml. The reaction mixture contained 250 μl of 100 mM HEPES buffer (pH 8), 500 μl of 10 mM 2,4-dichlorophenol, 100 μl of 1 mM aminoantipyrine, 50 μl enzyme preparation and 100 μl 50 mM H2 O2. The reaction was initiated by the addition of hydrogen peroxide at 37° C. One unit of peroxidase activity was expressed as the amount of enzyme required for an increase of one absorbance-unit-per-minute at 510 nm. Assays of manganese peroxidase and of ligninase from P. chrysosporium were carried out as previously described by Paszczynski et al in "Manganese peroxidase of Phanerochaete chrysosporium: Purification," Methods Enzymol. 161:264-270, incorporated herein by reference. […] Biophys., 1986, 44:750-765. Preparation and assay of ligninase and manganese peroxidase from these P. chrysosporium cultures were carried out as previously reported by Paszczynski, et al., Methods Enzymol., 1988, 161:264-270. […] Purification," Methods Enzymol. 161:264-270. […] Cycle time was 10 seconds, with the last measure after three minutes of incubation.

[2] = molecular target: T1, horseradish peroxidase type II (Armoracia rusticana, UniProt P00433); assay: Oxidation of azo dyes by horseradish peroxidase preparation; type: biochemical; settings: pH 8, 37° C., H2O2
T1 sequence (P00433 31-338): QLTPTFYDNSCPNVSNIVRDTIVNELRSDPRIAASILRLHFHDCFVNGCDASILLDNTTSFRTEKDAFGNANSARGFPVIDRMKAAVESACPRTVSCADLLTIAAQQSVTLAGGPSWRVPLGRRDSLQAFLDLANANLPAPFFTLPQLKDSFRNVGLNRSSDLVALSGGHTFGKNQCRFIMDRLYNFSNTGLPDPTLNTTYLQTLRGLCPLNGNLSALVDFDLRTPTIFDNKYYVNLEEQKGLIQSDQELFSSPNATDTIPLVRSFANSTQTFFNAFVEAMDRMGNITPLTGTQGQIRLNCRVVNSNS
Experimental: The reaction was started with the addition of 100 μl of 50 mM H2 O2 and was followed for 1 min at 37° C. Controls were run with no addition of H2 O2 or with the addition of the hemeperoxidase inhibitor KCN (final concentration 25 μM).

ligninase = assay: Oxidation of dyes by P. chrysosporium ligninase (crude preparation); type: biochemical, Phanerochaete chrysosporium; settings: crude enzyme, conditions specific for ligninase
Experimental: as §3, with “30 seconds” for “10 seconds,”, “15 minutes. […] The reaction conditions were the same as for acid yellow 9. No decolorization” for “three minutes”, “the synthesized dyes by ligninase was detected.” for “incubation.”

[3] = test system: Phanerochaete chrysosporium; assay: Substrate removal / decolorization by P. chrysosporium culture; type: cell-based; settings: for % Decolorization, P. chrysosporium: 14 days
Experimental: Environ. Microbiol., 1981, 42:290-296), with the addition of 75 mg adenine (6-aminopurine) and 27 mg L-phenylalanine-per-liter. This addition accelerated the growth of the fungus without inhibiting ligninase activity. […] […] Cultures were incubated at 37° C. for 7 to 15 days with shaking (250 rpm). Solid agar media were also employed.

S. rochei A10 = type: cell-based; settings: streptomyces rochei a10 culture, 336 h
Text: as §1, §2

S. diastaticus A12 = type: cell-based; settings: streptomyces diastaticus a12 culture, 336 h
Text: as §1, §2

S. diastaticus A13 = type: cell-based; settings: streptomyces diastaticus a13 culture, 336 h
Text: as §1, §2

[4] = test system: Streptomyces chromofuscus; assay: Mineralization of 14C-labeled dyes by shaken cultures; type: cell-based
Experimental: (§4) Agitated cultures containing 100,000 to 150,000 dpm of azo dye at a concentration of 200 mg/liter for P. chrysosporium and 50 mg/liter for S. chromofuscus were incubated at 37° C. for 20 days with shaking at 200 rpm. For each mineralization experiment six replicates-per-culture were run for P. chrysosporium and three replicates-per-culture for S. chromofuscus. Each culture flask contained a CO2 trap consisting of a small glass cup connected to the bottom of the rubber stopper. The cup contained 1 ml of 1N NaOH. Samples were taken every 2 days, and after each sampling cultures were flushed with 100% oxygen for 30 s. At the sampling time, the stopper was removed and the NaOH containing trapped CO2 was transferred to a 20-ml scintillation vial, and the cup was then rinsed twice with 1 ml of water. Two ml of rinse water were also transferred to the vial. Finally, 10 ml of Ecolite scintillation cocktail (ICN Biochemicals Inc., Irvine, Calif.) were added to each vial. Vials, after mixing, were stored in the dark for 24 h. The cpm of trapped radioactivity was then determined in a Packard Tri-Carb liquid scintillation analyzer, Model 1500, using the ^14 C quench standards and SIS numbers.
(§5) The removal of radioactivity from the media was determined by measuring the amount of ^14 C label in 0.1 ml of the medium at time 0 and 21 days for each culture. Uninoculated cultures were used as evaporation controls. […] At the end of each mineralization experiment, culture broths were acidified with 5 ml of 1M H3 PO4, fresh 1N NaOH was added to the trap, and the cultures were shaken overnight. No additional releases of ^14 CO2 were observed. The radioactivity assimilated by the cells was measured by solubilizing biomass harvested from each 21-day-old culture in an equal volume of hyamine hydroxide solution. Before solubilization, cells were washed three times with 50 ml of distilled water to remove adsorbed dyes. Ecolite 10 ml was added to the mixture, which was vortexed vigorously. To increase counting efficiency, the solution of biomass-hyamine-scintillation cocktail was further diluted 10 to 20 times with fresh Ecolite before counting.

P. chrysosporium = assay: as above; type: cell-based, Phanerochaete chrysosporium
Experimental: as §4
Either a charcoal-containing polyurethane sponge (Bio-Rad Laboratories, Richmond, Calif.) or 2-methoxyethanol was used to trap volatile organic compounds released during mineralization experiments. The sponge (1 cm^3) replaced the 1N NaOH solution in the small glass cap attached to the rubber stopper; other conditions were as before for the ^14 CO2 experiments. For scintillation counting, the charcoal sponges were dissolved in 1 ml of hyamine hydroxide contained in scintillation vials (1M solution in methanol; NEN Research Products, Boston, Mass.) held at 55° C. for 2 h. Ten ml of Ecolite scintillation cocktail were then added and the cpm was measured.
In the second procedure, cultures with CO2 traps were flushed with oxygen for 10 min, and the organic volatiles present were trapped in 10 ml of 2-methoxyethanol mixed with 10 ml Ecolite.
as §5

[5] = beginning concentration 100 ppm
[6] = beginning concentration 150 ppm
[7] = beginning concentration 200 ppm
[8] = beginning concentration 300 ppm

## O=S(=O)(O)c1ccc(N=Nc2ccc(O)c3ccccc23)cc1 [compound 32]
S. chromofuscus A11
  Decolorization of growth medium by S. chromofuscus A11: significantly decolorized
[1]
  Oxidation rate of azo dyes, S. chromofuscus peroxidase: 2.62 μmoles per minute per ml
Mn(II)-peroxidase
  Oxidation rate of azo dyes, P. chrysosporium Mn-peroxidase: 4.62 μmoles per minute per ml
[2]
  Oxidation rate of azo dyes, Horseradish peroxidase: 3.91 μmoles per minute per ml
ligninase
  Oxidation rate of azo dyes, P. chrysosporium Ligninase: 0.23 μmoles per minute per ml

## COc1cc(C)cc(N=Nc2ccc(S(=O)(=O)O)cc2)c1O [compound 11]
S. chromofuscus A11
  Degradation (%) after Streptomyces cultivation, strain A11: 9%
[1]
  Oxidation rate of azo dyes, S. chromofuscus peroxidase: 0.33 μmoles per minute per ml
[3]; [5]
  Concentration of substrate after ten days cultivation with P. chrysosporium: 6.795 ppm
[3]; [6]
  Concentration of substrate after ten days cultivation with P. chrysosporium: 14.416 ppm
[3]; [7]
  Concentration of substrate after ten days cultivation with P. chrysosporium: 30.075 ppm
[3]; [8]
  Concentration of substrate after ten days cultivation with P. chrysosporium: 21.765 ppm
[3]; initial concn 150 ppm
  % Decolorization, P. chrysosporium: 70%
[3]; initial concn 300 ppm
  % Decolorization, P. chrysosporium: 34%
Mn(II)-peroxidase
  Oxidation rate of azo dyes, P. chrysosporium Mn-peroxidase: 1.06 μmoles per minute per ml
[2]
  Oxidation rate of azo dyes, Horseradish peroxidase: 0.15 μmoles per minute per ml
S. rochei A10
  Degradation (%) after Streptomyces cultivation, strain A10: 4%
ligninase
  Oxidation rate of azo dyes, P. chrysosporium Ligninase: 1.28 μmoles per minute per ml

## Cc1cc(N=Nc2ccc(S(=O)(=O)O)cc2)ccc1O [compound 5]
S. chromofuscus A11
  Decolorization of growth medium by S. chromofuscus A11: significantly decolorized
  Degradation (%) after Streptomyces cultivation, strain A11: 20%
[1]
  Oxidation rate of azo dyes, S. chromofuscus peroxidase: 2.00 μmoles per minute per ml
[3]; [5]
  Concentration of substrate after ten days cultivation with P. chrysosporium: 6.084 ppm
[3]; [6]
  Concentration of substrate after ten days cultivation with P. chrysosporium: 9.870 ppm
[3]; [7]
  Concentration of substrate after ten days cultivation with P. chrysosporium: 14.500 ppm
[3]; [8]
  Concentration of substrate after ten days cultivation with P. chrysosporium: 22.680 ppm
[3]; initial concn 150 ppm
  % Decolorization, P. chrysosporium: 90%
[3]; initial concn 300 ppm
  % Decolorization, P. chrysosporium: 87%
Mn(II)-peroxidase
  Oxidation rate of azo dyes, P. chrysosporium Mn-peroxidase: 3.54 μmoles per minute per ml
[2]
  Oxidation rate of azo dyes, Horseradish peroxidase: 11.94 μmoles per minute per ml
S. diastaticus A12
  Degradation (%) after Streptomyces cultivation, strain A12: 3%
S. rochei A10
  Degradation (%) after Streptomyces cultivation, strain A10: 9%
S. diastaticus A13
  Degradation (%) after Streptomyces cultivation, strain A13: 8%
ligninase
  Oxidation rate of azo dyes, P. chrysosporium Ligninase: 0.00 μmoles per minute per ml

## O=S(=O)(O)c1ccc(N=Nc2ccc(O)c3ccccc23)cc1 [Azo dye 32, 4-(4-hydroxy-naphthylazo)-benzenesulfonic acid]
[4]; 21 days' growth, 50 mg/liter
  Percentage of radioactivity recovered in CO2, Streptomyces chromofuscus: 1.1%
  Percentage of radioactivity recovered in biomass (cells), Streptomyces chromofuscus: 7.0%
  Percentage of radioactivity removed from the medium, Streptomyces chromofuscus: 22.0%
P. chrysosporium; 21 days' growth, 200 mg/liter
  Percentage of radioactivity recovered in CO2, P. chrysosporium: 19.7%
  Percentage of radioactivity recovered in biomass (cells), P. chrysosporium: 4.0%
  Percentage of radioactivity removed from the medium, P. chrysosporium: 29.6%

## O=S(=O)(O)[14c]1[14cH][14cH][14c](N=Nc2c(O)ccc3ccccc23)[14cH][14cH]1 [compound 36]
P. chrysosporium; P. chrysosporium
  Degradation began earlier than dye 37: 2 days
P. chrysosporium; P. chrysosporium, 21-day incubation
  Degradation relative to dye 37: 2.5 times

## COc1cc(N=Nc2ccc(N=N[14c]3[14cH][14cH][14c](S(=O)(=O)O)[14cH][14cH]3)cc2S(=O)(=O)O)ccc1O [compound 35]
[4]; 21-day incubation
  Mineralization by the streptomycetes: mineralized
